According to PubChem BioAssay (NCI):
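Cultured in 96-well plates, cells were exposed to test compound for 48 hours across five concentrations. The concentration for 50% growth inhibition is given as GI50. TGI is the concentration that stops growth completely.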

Experiments:
Test in all cases: inhibition of tumour cell growth, NCI panel, 48 h
UO-31 renal = tested on: UO-31 renal
U251 CNS = tested on: U251 CNS
UACC-62 melanoma = tested on: UACC-62 melanoma
RPMI-8226 leukemia = tested on: RPMI-8226 leukemia
COLO 205 colon = tested on: COLO 205 colon
TK-10 renal = tested on: TK-10 renal
DU-145 prostate = tested on: DU-145 prostate
A498 renal = tested on: A498 renal
NCI-H226 lung = tested on: NCI-H226 lung
SN12C renal = tested on: SN12C renal
NCI-H522 lung = tested on: NCI-H522 lung
EKVX NSCLC = tested on: EKVX NSCLC
SF-268 CNS = tested on: SF-268 CNS
OVCAR-5 ovarian = tested on: OVCAR-5 ovarian
UACC-257 melanoma = tested on: UACC-257 melanoma
OVCAR-8 ovarian = tested on: OVCAR-8 ovarian
SK-MEL-28 melanoma = tested on: SK-MEL-28 melanoma
MALME-3M melanoma = tested on: MALME-3M melanoma
786-0 renal = tested on: 786-0 renal
KM12 colon = tested on: KM12 colon
HS 578T breast = tested on: HS 578T breast
NCI-H460 lung = tested on: NCI-H460 lung
RXF 393 renal = tested on: RXF 393 renal
HOP-62 NSCLC = tested on: HOP-62 NSCLC
SK-MEL-2 melanoma = tested on: SK-MEL-2 melanoma
PC-3 prostate = tested on: PC-3 prostate
K-562 leukemia = tested on: K-562 leukemia
MDA-MB-231 breast = tested on: MDA-MB-231 breast
MDA-MB-435 = tested on: MDA-MB-435
LOX IMVI melanoma = tested on: LOX IMVI melanoma
BT-549 breast = tested on: BT-549 breast
SF-539 CNS = tested on: SF-539 CNS
NCI-H23 lung = tested on: NCI-H23 lung
MCF7 breast = tested on: MCF7 breast
SR leukemia = tested on: SR leukemia
MOLT-4 leukemia = tested on: MOLT-4 leukemia
NCI/ADR-RES ovarian = tested on: NCI/ADR-RES ovarian
SW-620 colon = tested on: SW-620 colon
SK-MEL-5 melanoma = tested on: SK-MEL-5 melanoma
A549 NSCLC = tested on: A549 NSCLC
SF-295 CNS = tested on: SF-295 CNS
HCT-116 colon = tested on: HCT-116 colon
M14 melanoma = tested on: M14 melanoma
OVCAR-3 ovarian = tested on: OVCAR-3 ovarian
T-47D breast = tested on: T-47D breast
HL-60(TB) leukemia = tested on: HL-60(TB) leukemia
IGROV1 ovarian = tested on: IGROV1 ovarian
SNB-19 CNS = tested on: SNB-19 CNS
SK-OV-3 ovarian = tested on: SK-OV-3 ovarian
OVCAR-4 ovarian = tested on: OVCAR-4 ovarian
CAKI-1 renal = tested on: CAKI-1 renal
CCRF-CEM leukemia = tested on: CCRF-CEM leukemia

## COCCN(CCOC)c1nc(-c2ccccc2)nc2ccccc12
UO-31 renal
  GI50: 28.1 µM
  TGI: > 100 µM
U251 CNS
  GI50: 70.1 µM
  TGI: > 100 µM
UACC-62 melanoma
  GI50: 18.2 µM
  TGI: 34.9 µM
RPMI-8226 leukemia
  GI50: 7.03 µM
  TGI: 36 µM
COLO 205 colon
  GI50: 28.2 µM
  TGI: > 100 µM
TK-10 renal
  GI50: 30.7 µM
  TGI: 78.4 µM
DU-145 prostate
  GI50: 36.9 µM
  TGI: > 100 µM
A498 renal
  GI50: 30.1 µM
  TGI: 89.7 µM
NCI-H226 lung
  GI50: 23.6 µM
  TGI: 54 µM
SN12C renal
  GI50: 29.1 µM
  TGI: > 100 µM
NCI-H522 lung
  GI50: 21.6 µM
  TGI: 52.7 µM
EKVX NSCLC
  GI50: 38.8 µM
  TGI: > 100 µM
SF-268 CNS
  GI50: 19.7 µM
  TGI: 62.4 µM
OVCAR-5 ovarian
  GI50: 21.9 µM
  TGI: 46.3 µM
UACC-257 melanoma
  GI50: 17.7 µM
  TGI: 36.6 µM
OVCAR-8 ovarian
  GI50: 33.7 µM
  TGI: > 100 µM
SK-MEL-28 melanoma
  GI50: 29.2 µM
  TGI: > 100 µM
MALME-3M melanoma
  GI50: 20.2 µM
  TGI: 39.9 µM
786-0 renal
  GI50: 25.6 µM
  TGI: > 100 µM
KM12 colon
  GI50: 18.6 µM
  TGI: 47.2 µM
HS 578T breast
  GI50: 38.8 µM
  TGI: > 100 µM
NCI-H460 lung
  GI50: 20.8 µM
  TGI: 79.2 µM
RXF 393 renal
  GI50: 34.6 µM
  TGI: > 100 µM
HOP-62 NSCLC
  GI50: 22.4 µM
  TGI: 64.3 µM
SK-MEL-2 melanoma
  GI50: 19.2 µM
  TGI: 44.6 µM
PC-3 prostate
  GI50: 15.1 µM
  TGI: 43.7 µM
K-562 leukemia
  GI50: 36.1 µM
  TGI: > 100 µM
MDA-MB-231 breast
  GI50: 59.4 µM
  TGI: > 100 µM
MDA-MB-435
  GI50: 21.9 µM
  TGI: 55.8 µM
LOX IMVI melanoma
  GI50: 34.7 µM
  TGI: > 100 µM
BT-549 breast
  GI50: 22.5 µM
  TGI: 47.7 µM
SF-539 CNS
  GI50: 24.3 µM
  TGI: 52.9 µM
NCI-H23 lung
  GI50: 26.6 µM
  TGI: 54.7 µM
MCF7 breast
  GI50: 20.6 µM
  TGI: 55.7 µM
SR leukemia
  GI50: 34.4 µM
  TGI: > 100 µM
MOLT-4 leukemia
  GI50: 28.3 µM
  TGI: > 100 µM
NCI/ADR-RES ovarian
  GI50: 21.3 µM
  TGI: 61.2 µM
SW-620 colon
  GI50: 33.9 µM
  TGI: > 100 µM
SK-MEL-5 melanoma
  GI50: 15.8 µM
  TGI: 32.9 µM
A549 NSCLC
  GI50: 30.1 µM
  TGI: > 100 µM
SF-295 CNS
  GI50: 30.9 µM
  TGI: > 100 µM
HCT-116 colon
  GI50: 24.5 µM
  TGI: > 100 µM
M14 melanoma
  GI50: 13.9 µM
  TGI: 56.6 µM
OVCAR-3 ovarian
  GI50: 31.3 µM
  TGI: > 100 µM
T-47D breast
  GI50: 26.9 µM
  TGI: > 100 µM
HL-60(TB) leukemia
  GI50: 30.3 µM
  TGI: > 100 µM
IGROV1 ovarian
  GI50: 25.2 µM
  TGI: 93.6 µM
SNB-19 CNS
  GI50: 40.9 µM
  TGI: > 100 µM
SK-OV-3 ovarian
  GI50: 31.9 µM
  TGI: > 100 µM
OVCAR-4 ovarian
  GI50: 44.8 µM
  TGI: > 100 µM
CAKI-1 renal
  GI50: 23.2 µM
  TGI: 73.2 µM
CCRF-CEM leukemia
  GI50: 4.23 µM
  TGI: > 100 µM
